Test results: patent US4440772A, “Acid addition salts of dextrorotatory ergot alkaloids, a process for the preparation thereof as well as their use as medicines” (priority 1978, dated 1984)
Where a name gives a salt, the structure may show the parent alone. Read-outs that look alike come from different tables or passages of the source.

Columns and labels:
[1] = test system: isolated heart of a guinea pig; assay: effect on isolated heart of a guinea pig, modified Langendorff's method
Text: The effect of dextrorotatory ergot alkaloids according to the invention on heart in vitro was examined on isolated heart of a guinea pig by the modified Langendorff's method (Zalar et al., Poll. Chim. Farmac. 114, 1975, 146). Alkaloids were infused by an apparatus for slow infusion (B. Melsungen).

[2] = test system: alpha-adrenergic receivers of the dilatating pupil muscle; assay: effect on the function of the pupil (mydriatic effect, Polewka's method); type: in vivo; settings: 5 mg/kg intravenously, mouse
Description: The phenomenon of mydriasis induced by ergot alkaloids results from the stimulation of alpha-adrenergic receivers of the dilatating pupil muscle (Z. Votava et al., Arch. int. Pharmacodin. 45, 1958, 114).
The mydriatic effect of dextrorotatory ergot alkaloids administered intravenously was determined with a monocular measuring magnifying glass by Polewka's method (A. R. Turner, Screening Methods in Pharmacology, 1965, p. 174 ff.).
The size of the pupil was measured at first before the administration of the substance and then 15, 30 and 60 minutes after intravenous administration of alkaloids into the mouse tail (dose 5 mg/kg of body weight).

[3] = test system: spontaneously hypertensive rats; assay: effect on arterial pressure of spontaneously hypertensive rats; type: in vivo, rats (variety Okamoto Aoki F32)
Description: For the experiment groups of 10 spontaneously hypertensive rats (variety Okamoto Aoki F32) of both sexes, weighing from 200 to 250 g, were used. The acid addition salts of said dextrorotatory ergot alkaloids were administered intraperitoneally in doses of 50 mcg/kg of body weight and systolic blood pressure was measured on the rats' tails by means of plethysmographic method (K. Okamoto and K. Aoki, Jap. Circulat. J. 27, 1963, 282).

[4] = test system: arrhythmias induced by adrenalin; assay: effect on arrhythmia induced by adrenalin; type: in vivo; settings: 2.0 mg/kg intraperitoneally, guinea pigs, adrenalin 0.02 mg/kg intravenously
Description: For experiments, guinea pigs of both sexes, weighing from 400 to 550 g, were used. The narcotized animals (urethane 1.6 g/kg of body weight, intraperitoneally) were at first intravenously administered adrenalin (0.02 mg/kg) and then dextrorotatory ergot alkaloids. 1 hour and 1.5 hours after the administration of dextrorotatory ergot alkaloids, adrenalin was again administered intravenously (0.02 mg/kg) and the presence as well as duration of arrhythmias was ascertained.

[5] = acute toxicity (LD50), intraperitoneal administration; settings: mouse, in vivo, ip, male mice, 24 hours after administration
Description: The volume of injected solution was 0.01 ml/g of body weight. In the following Table I acute toxicity of dextrorotatory ergot alkaloids in comparison with levorotatory ergot alkaloids 24 hours after the intraperitoneal administration is given.

[6] = test system: smooth muscles of blood vessels; assay: effect on blood pressure drop in rats with cut spinal cord; type: in vivo, rats (variety Wistar); settings: for duration of long-duration hypertension: acid addition salts, 1.5 mg/kg of body weight; for vasoconstrictory effect: contraction of smooth muscles of blood vessels
Text: Rats (variety Wistar) in urethane narcosis were cut their spinal cord in the region of the second cervical vertebra and connected to an artificial breathing apparatus (B. Melsungen). By this intervention the central regulation of blood pressure was eliminated. In so treated animals blood pressure dropped for about 50 mm Hg. The experiment was supposed to show whether the examined substances directly affected the smooth muscles of blood vessels.

[7] = control, spontaneously hypertensive rats
[8] = day 2, 50 mcg/kg intraperitoneally
[9] = day 4, 50 mcg/kg intraperitoneally
[10] = day 6, 50 mcg/kg intraperitoneally
[11] = day 8, 50 mcg/kg intraperitoneally
[12] = day 10, 50 mcg/kg intraperitoneally

CC(C)C[C@H]1C(=O)N2CCC[C@H]2[C@]2(O)O[C@@](C)(NC(=O)[C@@H]3C=C4c5cccc6[nH]cc(c56)C[C@H]4N(C)C3)C(=O)N12 [ergosine methanesulfonate, reference compound]
activation at 0.57 µg/g ([1]; Cavia porcellus, dose 0.57 mcg/g of heart, read-out: (+)inotropic (maximum)): 49% | inhibition at 0.57 µg/g ([1]; Cavia porcellus, dose 0.57 mcg/g of heart, read-out: (-)chronotropic (maximum)): 17% | The increase of pupil widening in comparison with the control ([2]; after 15 min.): 115.6% | The increase of pupil widening in comparison with the control ([2]; after 30 min.): 110.5% | The increase of pupil widening in comparison with the control ([2]; after 60 min.): 39.7% | Systolic blood pressure [3, 7]: 188 mm Hg | Systolic blood pressure [3, 8]: 183 mm Hg | Systolic blood pressure [3, 9]: 178 mm Hg | Systolic blood pressure [3, 10]: 176 mm Hg | Systolic blood pressure [3, 11]: 175 mm Hg | Systolic blood pressure [3, 12]: 177 mm Hg | Shortening of arrhythmia duration [4]: 84 % of control | LD50 at 24 h [5]: 206 mg/kg

CC(C)[C@H]1C(=O)N2CCC[C@H]2[C@]2(O)O[C@](NC(=O)[C@H]3C=C4c5cccc6[nH]cc(c56)C[C@H]4N(C)C3)(C(C)C)C(=O)N12 [ergocorninine methanesulfonate, Ergocorninine methanesulfonate]
inhibition at 4.9 µg/g ([1]; Cavia porcellus, dose 4.90 mcg/g of heart, read-out: (-)chronotropic (maximum)): 11% | The increase of pupil widening in comparison with the control ([2]; after 15 min.): 52.7% | The increase of pupil widening in comparison with the control ([2]; after 30 min.): 36.1% | The increase of pupil widening in comparison with the control ([2]; after 60 min.): 19.4% | Systolic blood pressure [3, 7]: 190 mm Hg | Systolic blood pressure [3, 8]: 182 mm Hg | Systolic blood pressure [3, 9]: 176 mm Hg | Systolic blood pressure [3, 10]: 166 mm Hg | Systolic blood pressure [3, 11]: 160 mm Hg | Systolic blood pressure [3, 12]: 161 mm Hg | Shortening of arrhythmia duration [4]: 46 % of control | LD50 at 24 h [5]: > 520 mg/kg

CC(C)[C@H]1C(=O)N2CCC[C@H]2[C@]2(O)O[C@](NC(=O)[C@H]3C=C4c5cccc6[nH]cc(c56)C[C@H]4N(C)C3)(C(C)C)C(=O)N12 [ergocorninine]
duration of long-duration hypertension [6]: more than 60 minutes | vasoconstrictory effect [6]: vasoconstrictory effect

CC(C)C[C@H]1C(=O)N2CCC[C@H]2[C@]2(O)O[C@](NC(=O)[C@H]3C=C4c5cccc6[nH]cc(c56)C[C@H]4N(C)C3)(C(C)C)C(=O)N12 [ergocryptinine]
effect on isolated heart (in words) ([1]; isolated heart of guinea pig): qualitatively similar to that of ergotamine, ergosine and dihydroergotamine | effect on the strength of heart contraction (in words) ([1]; isolated heart of guinea pig): quantitatively greater effect on the strength of heart contraction | mydriatic effect (in words) [2]: strongest mydriatic effect | duration of long-duration hypertension [6]: more than 60 minutes | vasoconstrictory effect [6]: vasoconstrictory effect

CN1C[C@@H](C(=O)N[C@]2(C)O[C@@]3(O)[C@@H]4CCCN4C(=O)[C@H](Cc4ccccc4)N3C2=O)C=C2c3cccc4[nH]cc(c34)C[C@H]21 [ergotaminine methanesulfonate, Ergotaminine methanesulfonate]
activation at 5.59 µg/g ([1]; Cavia porcellus, dose 5.59 mcg/g of heart, read-out: (+)inotropic (maximum)): 32% | inhibition at 5.59 µg/g ([1]; Cavia porcellus, dose 5.59 mcg/g of heart, read-out: (-)chronotropic (maximum)): 20% | The increase of pupil widening in comparison with the control ([2]; after 15 min.): 66.3% | The increase of pupil widening in comparison with the control ([2]; after 30 min.): 69.8% | The increase of pupil widening in comparison with the control ([2]; after 60 min.): 30.3% | Systolic blood pressure [3, 7]: 189 mm Hg | Systolic blood pressure [3, 8]: 162 mm Hg | Systolic blood pressure [3, 9]: 143 mm Hg | Systolic blood pressure [3, 10]: 131 mm Hg | Systolic blood pressure [3, 11]: 144 mm Hg | Systolic blood pressure [3, 12]: 150 mm Hg | Shortening of arrhythmia duration [4]: 28 % of control | LD50 at 24 h [5]: > 300 mg/kg

CC(C)[C@@]1(NC(=O)[C@H]2C=C3c4cccc5[nH]cc(c45)C[C@H]3N(C)C2)O[C@@]2(O)[C@@H]3CCCN3C(=O)[C@H](Cc3ccccc3)N2C1=O [ergocristinine methanesulfonate, Ergocristinine methanesulfonate]
activation at 4.98 µg/g ([1]; Cavia porcellus, dose 4.98 mcg/g of heart, read-out: (+)inotropic (maximum)): 9% | inhibition at 4.98 µg/g ([1]; Cavia porcellus, dose 4.98 mcg/g of heart, read-out: (-)chronotropic (maximum)): 12% | The increase of pupil widening in comparison with the control ([2]; after 15 min.): 48.7% | The increase of pupil widening in comparison with the control ([2]; after 30 min.): 10.3% | The increase of pupil widening in comparison with the control ([2]; after 60 min.): 2.5% | Systolic blood pressure [3, 7]: 187 mm Hg | Systolic blood pressure [3, 8]: 183 mm Hg | Systolic blood pressure [3, 9]: 177 mm Hg | Systolic blood pressure [3, 10]: 169 mm Hg | Systolic blood pressure [3, 11]: 160 mm Hg | Systolic blood pressure [3, 12]: 152 mm Hg | Shortening of arrhythmia duration [4]: 32 % of control | LD50 at 24 h [5]: > 600 mg/kg

CC(C)C[C@H]1C(=O)N2CCC[C@H]2[C@]2(O)O[C@](NC(=O)[C@H]3C=C4c5cccc6[nH]cc(c56)C[C@H]4N(C)C3)(C(C)C)C(=O)N12 [ergocryptinine methanesulfonate, Ergocryptinine methanesulfonate]
activation at 0.04 µg/g ([1]; Cavia porcellus, dose 0.04 mcg/g of heart, read-out: (+)inotropic (maximum)): 111% | inhibition at 0.04 µg/g ([1]; Cavia porcellus, dose 0.04 mcg/g of heart, read-out: (-)chronotropic (maximum)): 21% | The increase of pupil widening in comparison with the control ([2]; after 15 min.): 117.4% | The increase of pupil widening in comparison with the control ([2]; after 30 min.): 91.6% | The increase of pupil widening in comparison with the control ([2]; after 60 min.): 32.2% | Systolic blood pressure [3, 7]: 189 mm Hg | Systolic blood pressure [3, 8]: 181 mm Hg | Systolic blood pressure [3, 9]: 176 mm Hg | Systolic blood pressure [3, 10]: 168 mm Hg | Systolic blood pressure [3, 11]: 161 mm Hg | Systolic blood pressure [3, 12]: 160 mm Hg | Shortening of arrhythmia duration [4]: 63 % of control | LD50 at 24 h [5]: > 520 mg/kg

CC(C)C[C@H]1C(=O)N2CCC[C@H]2[C@]2(O)O[C@@](C)(NC(=O)[C@H]3C=C4c5cccc6[nH]cc(c56)C[C@H]4N(C)C3)C(=O)N12 [ergosinine methanesulfonate, Ergosinine methanesulfonate]
activation at 0.65 µg/g ([1]; Cavia porcellus, dose 0.65 mcg/g of heart, read-out: (+)inotropic (maximum)): 103% | inhibition at 0.65 µg/g ([1]; Cavia porcellus, dose 0.65 mcg/g of heart, read-out: (-)chronotropic (maximum)): 23% | The increase of pupil widening in comparison with the control ([2]; after 15 min.): 135.0% | The increase of pupil widening in comparison with the control ([2]; after 30 min.): 122.5% | The increase of pupil widening in comparison with the control ([2]; after 60 min.): 32.5% | Systolic blood pressure [3, 7]: 180 mm Hg | Systolic blood pressure [3, 8]: 169 mm Hg | Systolic blood pressure [3, 9]: 152 mm Hg | Systolic blood pressure [3, 10]: 140 mm Hg | Systolic blood pressure [3, 11]: 141 mm Hg | Systolic blood pressure [3, 12]: 138 mm Hg | Shortening of arrhythmia duration [4]: 79 % of control | LD50 at 24 h [5]: 245 mg/kg

CC(C)C[C@H]1C(=O)N2CCC[C@H]2[C@]2(O)O[C@](NC(=O)[C@@H]3C=C4c5cccc6[nH]cc(c56)C[C@H]4N(C)C3)(C(C)C)C(=O)N12 [ergocryptine methanesulfonate, reference compound]
LD50 at 24 h [5]: 188 mg/kg

CC(C)[C@@]1(NC(=O)[C@@H]2C=C3c4cccc5[nH]cc(c45)C[C@H]3N(C)C2)O[C@@]2(O)[C@@H]3CCCN3C(=O)[C@H](Cc3ccccc3)N2C1=O [ergocristine methanesulfonate, reference compound]
LD50 at 24 h [5]: 234 mg/kg

CN1C[C@H](C(=O)N[C@]2(C)O[C@@]3(O)[C@@H]4CCCN4C(=O)[C@H](Cc4ccccc4)N3C2=O)C=C2c3cccc4[nH]cc(c34)C[C@H]21 [ergotamine tartrate, reference compound]
activation at 0.65 µg/g ([1]; Cavia porcellus, read-out: (+)inotropic (maximum)): 75% | inhibition at 0.65 µg/g ([1]; Cavia porcellus, read-out: (-)chronotropic (maximum)): 30% | The increase of pupil widening in comparison with the control ([2]; after 15 min.): 73.3% | The increase of pupil widening in comparison with the control ([2]; after 30 min.): 22.8% | The increase of pupil widening in comparison with the control ([2]; after 60 min.): 4.6% | Systolic blood pressure [3, 7]: 179 mm Hg | Systolic blood pressure [3, 8]: 174 mm Hg | Systolic blood pressure [3, 9]: 170 mm Hg | Systolic blood pressure [3, 10]: 172 mm Hg | Systolic blood pressure [3, 11]: 173 mm Hg | Systolic blood pressure [3, 12]: 172 mm Hg | Shortening of arrhythmia duration [4]: 63 % of control | LD50 at 24 h [5]: 412 mg/kg
